Laboratory results taken from ChEMBL document CHEMBL1268837, “Novel CGRP receptor antagonists from central amide replacements causing a reversal of preferred chirality” (Bioorg Med Chem Lett, 2010).

These compounds were tested against T1, Calcitonin gene-related peptide type 1 receptor (Homo sapiens, UniProt O60894+Q16602) (assay: Displacement of [125I]hCGRP from human cloned CGRP receptor expressed in HEK293 cells).
Assay type: cell-based

T1 sequence (Q16602 whole entry, one chain of several): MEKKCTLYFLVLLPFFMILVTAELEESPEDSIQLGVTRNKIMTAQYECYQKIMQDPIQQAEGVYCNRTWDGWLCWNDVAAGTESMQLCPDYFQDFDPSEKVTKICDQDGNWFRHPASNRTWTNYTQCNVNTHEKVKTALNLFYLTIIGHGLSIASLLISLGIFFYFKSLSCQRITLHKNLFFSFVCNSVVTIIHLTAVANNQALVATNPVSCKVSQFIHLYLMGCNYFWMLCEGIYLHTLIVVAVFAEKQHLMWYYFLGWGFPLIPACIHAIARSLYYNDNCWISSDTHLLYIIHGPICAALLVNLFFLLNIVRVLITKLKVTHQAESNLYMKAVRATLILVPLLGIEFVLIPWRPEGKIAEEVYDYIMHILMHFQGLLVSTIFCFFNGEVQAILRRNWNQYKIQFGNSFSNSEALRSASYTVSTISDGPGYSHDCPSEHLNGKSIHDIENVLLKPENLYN

Row | SMILES | Ki [nM]
1 | CC(C)(C)C(=O)N(Cc1cnc2nc3c(cc2c1)C[C@@]1(C3)C(=O)Nc2ncccc21)[C@@H]1CCc2ccccc21 | 0.15
2 | C[C@H](c1cc(F)cc(F)c1)N(Cc1cnc2cc3c(cc2c1)C[C@@]1(C3)C(=O)Nc2ncccc21)C(=O)C(C)(C)C | 0.12
3 | CC(C)(C)C(=O)N(Cc1cc(F)cc(F)c1)Cc1cnc2cc3c(cc2c1)C[C@@]1(C3)C(=O)Nc2ncccc21 | 0.69
4 | CC1(C)CC[C@@H](c2cc(F)cc(F)c2)N(Cc2cnc3cc4c(cc3c2)C[C@@]2(C4)C(=O)Nc3ncccc32)C1=O | 0.3

Now from value to compound:

Row | Ki [nM] | SMILES
5 | 1.3 | CC(C)(C)C(=O)N(Cc1ccccc1)Cc1cnc2cc3c(cc2c1)C[C@@]1(C3)C(=O)Nc2ncccc21
6 | 0.11 | CC(C)(C)C(=O)N(Cc1ccc2nc3c(cc2c1)C[C@@]1(C3)C(=O)Nc2ncccc21)[C@@H]1CCc2ccccc21
7 | 0.1 | C[C@H](c1ccccc1)N(Cc1cnc2cc3c(cc2c1)C[C@@]1(C3)C(=O)Nc2ncccc21)C(=O)C(C)(C)C
8 | 0.037 | CC(C)(C)C(=O)N(Cc1cnc2cc3c(cc2c1)C[C@@]1(C3)C(=O)Nc2ncccc21)C[C@@H]1CCc2ccccc21

These compounds were tested against T1, Calcitonin gene-related peptide type 1 receptor (assay: Binding affinity to human recombinant CGRP receptor).

Row | Ki [nM] | SMILES
9 | 2.2 | CN1C(=O)NC(=O)C12Cc1cc3ccc(CN(Cc4ccccc4)C(=O)C(C)(C)C)nc3cc1C2 (stereo unspecified)
10 | 12 | CN1C(=O)NC(=O)[C@]12Cc1cc3cc(CN(Cc4ccccc4)C(=O)C(C)(C)C)cnc3cc1C2
11 | 35 | CN1C(=O)NC(=O)C12Cc1cc3cc(CN(Cc4ccccc4)C(=O)C(C)(C)C)cnc3cc1C2 (stereo unspecified)
